In ChEMBL document CHEMBL1130871, “Korundamine A, a novel HIV-inhibitory and antimalarial "hybrid" naphthylisoquinoline alkaloid heterodimer from Ancistrocladus korupensis” (Bioorg Med Chem Lett, 1998):
Values after ≈ are worked out from the molar mass of the structure shown.

Columns and labels:
[1] = test system: CCRF-CEM; experiment: Compound was tested for anti HIV-1 activity against CEM-SS/OC100 cell/virus strain; format: functional, cell-based; conditions: Homo sapiens
[2] = test system: Human immunodeficiency virus 1; experiment: Compound was tested for inhibition of cytopathic effects against human immunodeficiency virus type 1 (HIV-1); format: functional, organism-based
[3] = species on record: Homo sapiens; experiment: Compound was tested for anti HIV-1 activity against MT2/A17 cell/virus strain; format: functional, organism-based
[4] = species on record: Homo sapiens; experiment: Compound was tested for anti HIV-1 activity against MT2/G9106 cell/virus strain; format: functional, organism-based
[5] = test system: Plasmodium falciparum; experiment: In vitro antimalarial activity against Plasmodium falciparum; format: functional, organism-based

EC50 [1]: 8 µM
EC50 [2]: 2 µM
EC50 [3]: 10 µM
EC50 [4]: 6 µM
IC50 [5]: 1.1 µg/mL (≈ 1.43 µM)
SMILES: COc1c2c(cc(O)c1-c1cc(-c3cc(-c4c(O)cc(O)c5c4C[C@@H](C)N[C@@H]5C)c4cc(C)cc(OC)c4c3O)c(O)c3c(OC)cc(C)cc13)C[C@@H](C)N=C2C
